# Tested on: C. albicans
# Assay: Candidiasis in immunosuppressed C. albicans-colonized mice given Kazachstania-supplemented drinking water
# Format: in vivo
# Description: Stably fungal-colonized mice were 5×s.c injected with 225 mg kg-1 with cortisone 21-acetate, following the scheme of injection every other day as described previously (Solis and Filler, 2012). Mice were monitored for weight loss. Following sacrifice, organs and feces were collected for histological examination, flow cytometry and fungal cultivations). If the weight dropped […], mice were sacrificed according to IACUC protocol.
# For enumerating the number of recoverable C. albicans and K. weizmannii colony forming units, individual fecal pellets or each tissue from mice was sterilely dissected, weighed, and homogenized in sterile DDW. Serial dilutions on the organ homogenate were spread onto YPD media plates and the number of individual colonies enumerated after incubation at 37° C. for 24 hours.
# Mice were euthanized and intestines, kidneys and tongue were excised and fixed overnight in 4% paraformaldehyde at 4° C. Paraffin embedding and sectioning was performed by the institutional histology unit. For immunohistochemistry of gut samples, slides were deparaffinized by 2 washes of Xylene followed by 100%, 96%, 70% EtOH and three washes with PBS. Slides were incubated for 30 minutes in 1% hydrogen peroxide in PBS at room temperature in the dark. After washing three times in PBS, slides were boiled for 10 minutes in Citric acid buffer pH 6.0 (10 mM citric acid and 0.05% Tween-20 in DDW), then washed with PBS three times. Next, slides were blocked in BP buffer (0.3% Triton X-100, 2% horse serum and 1% bovine serum albumin in PBS) for 1 h, then incubated overnight at 4° C. with a 1:200 dilution of the primary antibody (anti-Candida) in BP buffer. […] For histopathology of typical tongue or kidney fungal lesions in the mouse model of immunosuppression, paraffin sections were stained with periodic acid-Schiff (PAS) or H&E and slides were captured using a Panoramic SCAN II (3DHISTECH) and analyzed using CaseViewer software (3DHISTECH).
substance,measurement,setting,value
Kazachstania weizmannii [K. weizmannii],C. albicans in feces of colonized animals,Kazachstania-supplemented drinking water prior to immunosuppression,efficiently expelled C. albicans from colonized animals
same,weight loss and systemic yeast spread (kidney colonization),immunosuppressed C. albicans-colonized animals exposed to K. weizmannii,significantly delayed the weight loss and systemic yeast spread
same,durability of protection,prolonged immunosuppressive treatment,not permanently protected
